Results on six compounds are retold here after US8440810B2, “Riboswitches, methods for their use, and compositions for use with riboswitches” (Yale University, priority 2002, dated 2013).

For experiment [1], the system named is 93 xpt RNA. Description: In-line probing of 93 xpt RNA. It is filed as binding, B. subtilis.
Experiment [2] deals with 93 xpt RNA. In words: Equilibrium dialysis with 93 xpt RNA. Format: binding, B. subtilis. Background: In equilibrium dialysis only unbound substance equilibrates across the membrane.
Experiment [3] relates to xpt-pbuX 5′-UTR fused to β-galactosidase reporter gene. Description: xpt-lacZ β-galactosidase reporter expression. Format: cell-based, B. subtilis. The following applies: wild-type xpt construct.
In the next experiment the test system is 80 ydhL RNA. In words: In-line probing of 80 ydhL RNA. It is filed as binding, B. subtilis.
The next experiment has as its system purE RNA. Description: In-line probing of purE RNA. The following applies: 1 μM ligand. It is filed as binding, B. subtilis.
Experiment [4] deals with wild-type ydhL riboswitch fused to β-galactosidase reporter gene. Description: ydhL-lacZ β-galactosidase reporter expression. Format: cell-based, B. subtilis.
The test system of experiment [5] is xpt riboswitch variant with the C to U mutation at position 74, reporter construct. Format: cell-based, B. subtilis.
For experiment [6], the target named is purine-binding aptamer from a pool of random-sequence RNAs. Particulars: cited from earlier work.
The next experiment has as its target 201 xpt RNA. Description: In-line probing of 201 xpt RNA. Particulars: read-out: apparent KD; limit of detection of the assay.
For experiment [7], the target named is 202-nucleotide leader sequence of the btuB mRNA. Format: binding, Escherichia coli. The following applies: half-maximal structural modulation, 25° C., 20 mM MgCl2, pH 8.3; read-out: apparent KD. On the procedure: Precursor mRNA leader molecules were prepared by in vitro transcription from templates generated by PCR (see In vivo Expression Constructs and Assays section below) and 5′ ^32p-labeled using methods described previously (Soukup and Breaker, Allosteric nucleic acid catalysts. Curr. Opin. Struct. Biol. 10, […] (2000)). Approximately 20 nM of labeled RNA precursor was incubated as described in the brief description of FIG. 1. Accompanying digestions were carried out using reaction conditions similar to those described previously (Soukup and Breaker, Relationship between internucleotide linkage geometry and the stability of […]. RNA 5, 1308-1325 (1999)). […]
Metabolite-dependent conformational changes in the 202-nucleotide leader sequence of the btuB mRNA. […] The image was generated using a phosphorimager (Molecular Dynamics), and cleavage yields were quantitated by using ImageQuant software. […]
The btuB mRNA leader forms a saturable binding site for AdoCbl. […] 5′-^32P-labeled mRNA leader molecules were incubated, separated, and analyzed as described in the in the legend to FIG. 1A, and include identical control and marker lanes as indicated. […] Fraction cleaved values were normalized relative to the highest and lowest cleavage values measured for each location, including the values obtained upon incubation in the absence of AdoCbl. […]

The target of experiment [8] is btuB mRNA leader mutants m4 and m5. Format: binding, Escherichia coli. Particulars: mutants m4 and m5 (possible P4/P9 pseudoknot).
A further experiment relates to btuB leader-lacZ fusion. In words: btuB-lacZ expression assay. Particulars: wild-type btuB leader. It is filed as cell-based, E. coli.
Experiment [9] relates to 202-nucleotide mRNA leader (btuB). In words: Equilibrium dialysis with btuB mRNA leader.
For a further experiment, the target named is 251 yitJ RNA. Format: binding, B. subtilis.
Another experiment concerns the target 124 yitJ RNA. Description: In-line probing of 124 yitJ RNA. Format: binding, B. subtilis. The following applies: minimized aptamer domain.
In another experiment the test system is metI leader construct. Format: biochemical, B. subtilis.
Experiment [10] relates to aptamer domain from B. subtilis cysH. Format: binding.
In experiment [11] the test system is yitJ, yoaD and metK leader constructs. In words: In vitro transcription termination with T7 RNA polymerase, yitJ, yoaD and metK leaders. The following applies: 50 μM.
The target in experiment [12] is 179 lysC RNA. It is filed as binding, B. subtilis.
Experiment [13] concerns lysC 5′-UTR fused to lacZ reporter gene. It is filed as cell-based, B. subtilis. The following applies: wild-type construct, minimal medium plus 1 mM compound.
The target in experiment [14] is RNA construct encompassing nucleotides 1 through 315 of the lysC 5′-UTR. The following applies: read-out: apparent KD; aptamer plus expression platform.
Experiment [15] addresses 179 lysC RNA. In words: In-line probing of 179 lysC RNA. The following applies: read-out: apparent KD; half-maximal structural modulation.
The next experiment deals with lysC 5′-UTR template. In words: In vitro transcription termination assay, lysC 5′-UTR. Particulars: 10 mM ligand, E. coli RNA polymerase, single-round.
The subject of another experiment is 165 thiM RNA. It is filed as binding, E. coli. The following applies: for Kd: read-out: apparent KD. The text has this: (§1) Specifically, TPP-dependent modulation of the spontaneous cleavage of RNA constructs was visualized by polyacrylamide gel electrophoresis (PAGE). […] Some RNAs were subjected to no reaction, partial digestion with alkali, or partial digestion with RNase T1 (G-specific cleavage) (see FIG. 6a). Composite plots of the fraction of RNA cleaved at specific sites versus the logarithm of the concentration of ligand (e.g. FIG. 7a) were generated to provide an estimate of the apparent KD. Fraction cleaved values were normalized relative to the highest and lowest cleavage values measured for each site.
NR, ^−OH and T1 represent RNAs subjected to no reaction, partial digestion with alkali, or partial digestion with RNase Tl (G-specific cleavage), respectively. Product bands representing cleavage after selected G residues are numbered and identified by filled arrowheads. The asterisk identifies modulation of RNA structure involving the Shine-Dalgarno (SD) sequence. Gel separations were analyzed using a phosphorimager (Molecular Dynamics) and quantitated using ImageQuant software.

Another experiment deals with 240 thiC RNA. In words: In-line probing of 240 thiC RNA. Format: binding, E. coli. The following applies: Example 2, FIG. 7A; read-out: apparent KD. On the procedure:
Some RNAs were subjected to no reaction, partial digestion with alkali, or partial digestion with RNase T1 (G-specific cleavage) (see FIG. 6a). Composite plots of the fraction of RNA cleaved at specific sites versus the logarithm of the concentration of ligand (e.g. FIG. 7a) were generated to provide an estimate of the apparent KD. Fraction cleaved values were normalized relative to the highest and lowest cleavage values measured for each site. […] Reactions were conducted and analyzed as described in above for FIG. 6A. […] The truncated RNA 111 thiC is boxed. Nucleotides enclosed in boxes identify an alternative pairing.

Another experiment concerns 91 thiM RNA. Format: binding, E. coli.
Description: as §1
ii. The thiM and thiC mRNA Leaders Serve as High-Affinity Metabolite Receptors. […] Arrows reflect the estimated concentration of TPP needed to attain half maximal modulation of RNA (apparent KD). […] The boxed data was generated using TPP with the truncated RNAs 91 thiM and 111 thiC. […] Details for the RNA probing analysis are similar to those described above in connection with FIG. 6A. The graphs were generated by ImageQuant software.

Experiment [16] has as its target TPP-binding domain of A. thaliana (128-nucleotide RNA). Description: In-line probing of Arabidopsis TPP-binding domain. Further details: species or system Arabidopsis thaliana. The following applies: read-out: apparent dissociation constant (KD).
The next experiment concerns the target ribD RNA. In words: In-line probing of ribD RNA (RFN element). It is filed as binding, B. subtilis. Particulars: read-out: apparent KD.
The test system of a further experiment is ribD leader region. In words: In vitro transcription of ribD leader region. Particulars: T7 or B. subtilis RNA polymerase, no additional protein factors. It is filed as biochemical.

Structures are written as SMILES. “Also recorded” adds a separate entry of the source. Like-named read-outs stand apart in the source and are kept apart here.

Description for ribD RNA: To assess whether the RFN element of ribD was responsive to FMN, a fragment of the corresponding 5′-UTR was 5′-^32P labeled and incubated in the absence and presence of FMN, and the resulting fragments were analyzed by polyacrylamide gel electrophoresis (PAGE). […] To obtain values for apparent dissociation constant (apparent KD) for FMN, in-line probing assays were repeated with trace amounts of ribD RNA and increasing concentrations of FMN; the ligand concentration that correlates with half-maximal modulation of RNA structure should reflect the apparent KD.

As to `Nc1nc2nc[nH]c2c(=O)[nH]1` [guanine], the “modulation of spontaneous cleavage pattern” value with 93 xpt RNA [1] (1 μM (adenine as much as 1 mM), 93 xpt and 201 xpt) was “undergo significant alteration”. In addition, the Kd on 93 xpt RNA [1] (wild-type xpt RNA, Example 8 (FIG. 39a), read-out: apparent KD) was ≤ 5 nM; in experiment [6], 1300 nM; on 201 xpt RNA, ≤ 5 nM. Also, the “tritiated guanine co-localized with RNA” value with 93 xpt RNA [2] (100 nM 3H-guanine, 300 nM RNA) is given as “greater than 90%”. In addition, in the experiment with 93 xpt RNA [2] (500 nM analog), the “redistribution of 3H-guanine by excess unlabeled competitor” value was “redistributes”. Besides, the “shift of distribution of tritiated ligand by RNA” value with 93 xpt RNA [2] (Example 8: 100 nM tritiated ligand, 3 μM RNA) was “able to shift the distribution of tritiated guanine”. The “repression of β-galactosidase reporter expression” value in experiment [3] is given as “repressed by guanine; also recorded: causes repression of β-galactosidase expression”. Besides, the “binding / structural modulation” value in the experiment on 80 ydhL RNA was “remains unchanged”. In the experiment on purE RNA, the allosteric response result is “responds allosterically to guanine”. Further, the β-galactosidase activity result in [4] is on record as “very low β-galactosidase activity”. Further, the “regulation of reporter expression” value in experiment [5] is on record as “loss of regulation upon addition of guanine”.
Regarding `C/C1=C2/[N-]C([C@H](CC(N)=O)[C@@]2(C)CCC(=O)NC[C@@H](C)OP(=O)([O-])O[C@H]2[C@@H](O)[C@@H](n3cnc4cc(C)c(C)cc43)O[C@@H]2CO)[C@]2(C)N=C(/C(C)=C3N=C(/C=C4N=C1[C@@H](CCC(N)=O)C\4(C)C)[C@@H](CCC(N)=O)[C@]\3(C)CC(N)=O)[C@@H](CCC(N)=O)[C@]2(C)CC(N)=O.[CH2-][C@H]1O[C@@H](n2cnc3c(N)ncnc32)[C@@H](O)[C@@H]1O.[Co+3]` [AdoCbl, 5′-deoxy-5′-adenosylcobalamin], the figures for the Kd in experiment [7] and in [8] were ~300 nM and ~5000 nM, respectively. In the experiment with btuB leader-lacZ fusion, the “regulatory effector function on reporter gene inside cells” value is reported as “down regulation of a reporter gene”. For the same compound, in experiment [9] (5,000 pmoles unlabeled compound added to chamber b), the “restoration of equal tritium distribution by excess unlabeled compound” value is “restores equal distribution of tritium”. Also, the “cpm ratio (chamber b relative to a)” value in experiment [9] (3H-AdoCbl, mRNA leader in chamber b) is ~2.
As for `C[S+](CC[C@H](N)C(=O)O)C[C@H]1O[C@@H](n2cnc3c(N)ncnc32)[C@H](O)[C@@H]1O` (some centres unmarked) [SAM, S-adenosylmethionine], the figures for the Kd at 251 yitJ RNA and at 124 yitJ RNA were ~200 nM and ~4 nM, respectively. For the same compound, the termination product in the experiment on metI leader construct (50 μM effector, wild-type metI) is ~75%. Moreover, the “additional yield in transcription termination” value in the experiment on metI leader construct (mutant Mabc (six mutations)) is ~20%. Moreover, the “affinity poorer than that of yitJ” value in [10] is reported as “more than 2 orders of magnitude”. Besides, in experiment [11], the transcription termination result was “modest transcription termination”.
For `NCCCC[C@H](N)C(=O)O` [L-lysine], the Kd at 179 lysC RNA [12] (1 μM RNA, 3H-lysine 50 nM to 2.5 μM, read-out: apparent KD (Scatchard plot)) is ~1000 nM; in experiment [14] it was ~500000 nM; at 179 lysC RNA [15] it was ~1000 nM. In the experiment on 179 lysC RNA [12] (10 μM 179 lysC in chamber b, 50 nM 3H-lysine, 10 hr), the “fraction of tritiated L-lysine in chamber b” value is given as ~0.8. In the experiment on 179 lysC RNA [12] (50 μM unlabeled compound, additional 10 hr), the “restoration of equal tritium distribution by unlabeled competitor” value was “symmetric distribution of tritium is restored”. Further, the “repression of β-galactosidase reporter expression” value in experiment [13] is recorded as “exhibits ligand-dependent modulation”. For the same compound, the “terminated product relative to total transcription yield” value in the experiment with lysC 5′-UTR template was ~76%.
For the compound `Cc1ncc(C[n+]2csc(CCO[P@](=O)(O)OP(=O)(O)O)c2C)c(N)n1` [TPP, thiamine pyrophosphate], the structure modulation result with 165 thiM RNA (40 μM each compound) was “induce modulation”. The Kd is 600 nM on 165 thiM RNA (Example 2, FIG. 7A); 500 nM at 165 thiM RNA (thiM RNA as reported in Example 3 (FIG. 13)); 100 nM on 240 thiC RNA; ~50 nM in experiment [16]. Besides, in the experiment on 91 thiM RNA, the “improvement of apparent KD compared to the longer construct (165 thiM)” value is recorded as “approximately 20 fold”.
`Cc1cc2nc3c(=O)[nH]c(=O)nc-3n(C[C@H](O)[C@H](O)[C@H](O)COP(=O)(O)O)c2cc1C` [FMN, flavin mononucleotide]: the Kd on ribD RNA is ~5 nM. Moreover, in the experiment on ribD leader region, the “transcription termination at the intrinsic terminator” value is “specifically induced by FMN”.
